Counter-ions that a name gives are not always drawn.
Experiments:
[1] = test system: hypertensive anterior uveitis associated with clinical signs of cytomegalovirus (CMV) iritis; experiment: Case report: topical valganciclovir for hypertensive anterior uveitis with clinical signs of CMV iritis (Example 5); format: in vivo, human
Protocol: Valganciclovir was extracted from the tablet form (450 mg, Valcyte, Roche). Briefly, tablets were dissolved in 0.001N HCl (2 ml per tablet), the insoluble excipients were isolated by centrifugation at 16,000 g, the solution was then filtered through 0.2 μm filter into ice-cold isopropanol (20 ml per tablet) leading to precipitation of the valganciclovir. The precipitate was spun down at 3,000 g, isopropanol was decanted and remaining volatile solvents were removed in the lyophilizer. The identity of valganciclovir was confirmed by liquid chromatography-mass spectrometry (LC-MS). 1% (w/w) valganciclovir ointment in the oleaginous base (20% mineral oil and 80% white petrolatum) was made by following standard compounding practices.
The patient was referred to us […] with chronic low-grade iritis and IOPs that were not adequately managed with medications (prednisolone acetate, brimonidine, and dorzolamide/timolol). Based on the history, pattern of keratic precipitates, mild anterior chamber inflammation, iris atrophy and elevated IOP (25 mmHg in the right eye and 16 mmHg in the left eye) CMV iritis was suspected. […]. PCR of the aqueous was negative for CMV, herpes simplex virus (HSV), and varicella-zoster virus (VZV) DNA.^6 However, because we had previously observed false negative PCR results in a substantial proportion of eyes suspected to have CMV iritis on clinical grounds, we decided to start a course of oral valganciclovir (900 mg twice daily). Within six weeks their IOP returned to normal levels and after 3 months all keratic precipitates completely resolved.
Nine months after the start of valganciclovir therapy, valganciclovir was discontinued and twice daily ganciclovir gel, 0.15%, was started. […] The patient refused to restart oral valganciclovir due to concerns about the toxicity of systemic valganciclovir, and continued with ganciclovir gel, topical corticosteroids, and topical anti-hypertensives.
At this same time, the patient began treating their condition with self-compounded topical valganciclovir. They initially wore a contact lens soaked overnight in 5% valganciclovir and later formulated 5% valganciclovir eye drops, which they administered 2-4 times per day. With this approach the patient's ocular inflammation and IOP improved and surgery was postponed, but the patient still required topical corticosteroids and topical anti-hypertensive medications. After 3 years of controlled inflammation on valganciclovir eye drops, the patient became concerned about medication stability and began formulating 1% valganciclovir ointment in an oleaginous base (80% white petrolatum and 20% mineral oil). […] With long-term use of topical valganciclovir ointment, the patient was able to taper off topical corticosteroids and topical anti-hypertensives and has remained stable since then (9 months).

[2] = test system: CMV-induced inflammation in the eye; experiment: Valganciclovir hydrochloride ophthalmic ointments tested in a patient with CMV-induced inflammation in the eye (Example 4); format: in vivo, human; settings: topical ophthalmic ointment, 1% w/w and 5% w/w, one patient
Protocol: The 1% w/w and 5% w/w valganciclovir hydrochloride ophthalmic ointments were tested in a patient with CMV-induced inflammation in the eye.

CC(C)[C@H](N)C(=O)OCC(CO)OCn1cnc2c(=O)nc(N)[nH]c21 (stereo partly drawn) [valganciclovir, valganciclovir hydrochloride]
ocular inflammation and intraocular pressure ([1]; oral valganciclovir together with topical corticosteroids): ocular inflammation resolved and intraocular pressure normalized | disease status after dose reduction ([1]; oral, 450 mg twice daily): the disease remained quiet | leukopenia (complete blood counts tested periodically) ([1]; oral, 900 mg twice daily): no leukopenia developed | time until IOP returned to normal levels ([1]; oral, 900 mg twice daily): six | time until all keratic precipitates completely resolved ([1]; oral, 900 mg twice daily): 3 months | control of the inflammation and lowering of the intraocular pressure [2]: effectiveness

From patent US20160095861A1, “OPHTHALMIC OINTMENTS COMPRISING VALGANCICLOVIR HYDROCHLORIDE FOR TREATING INFECTIVE EYE DISEASES” (SKIRON BIOSCIENCES, priority 2014, published 2016)
